“And” between values parts separate entries of the source, which are not always exact repeats. Identical values can stand only once.
assay: A mix consisting of 20 nM GST-MDM2 protein (aa 23-117) and 20 nM biotinylated p53 wt peptide (encompassing aa 16-27 of wt human p53, amino acid sequence QETFSDLWKLLP-Ttds-Lys-Biotin, molecular weight 2132.56 g/mol) is prepared in assay buffer (50 mM Tris/HCl pH 7.2; 120 mM NaCl; 0.1% bovine serum albumin (BSA); 5 mM dithiothreitol (DTT); 1 mM ethylenediaminetetraacetic acid (EDTA); 0.01% Tween 20). 30 μL of the mix is added to the compound dilutions and incubated for 15 min at rt while gently shaking the plate at 300 rounds per minute (rpm). Subsequently, 15 μL of premixed AlphaLISA Glutathione Acceptor Beads and AlphaScreen Streptavidin Donor Beads from PerkinElmer (in assay buffer at a concentration of 10 μg/mL each) are added and the samples are incubated for 30 min at rt in the dark (shaking 300 rpm). Afterwards, the signal is measured in a PerkinElmer Envision HTS Multilabel Reader using the AlphaScreen protocol from PerkinElmer.Each plate contains negative controls where biotinylated p53-peptide and GST-MDM2 are left out and replaced by assay buffer. Negative control values are entered as low basis value when using the software GraphPad Prism for calculations.

IC50 | Compound
0.012 µM and 0.007 µM | CC(C1CC1)N1[C@H]2CCn3c(nc4cc(S(C)(=O)=O)ccc43)[C@H]2[C@H](c2cccc(Cl)c2F)[C@]12C(=O)Nc1cc(Cl)ccc12 (some centres undefined)
0.003 µM | COC(=O)c1ccc2c(c1)nc1n2CC[C@H]2[C@@H]1[C@H](c1cccc(Cl)c1F)[C@]1(C(=O)Nc3cc(Cl)ccc31)N2CC1CC1
0.015 µM | CC(=O)Nc1ccc2c(c1)nc1n2CC[C@H]2[C@@H]1[C@H](c1cccc(Cl)c1F)[C@]1(C(=O)Nc3cc(Cl)ccc31)N2C(C)C1CC1 (some centres undefined)

Compound | IC50
CS(=O)(=O)OCCN1[C@H]2CCn3c(nc4cc(C(=O)O)ccc43)[C@H]2[C@H](c2cccc(Cl)c2F)[C@]12C(=O)Nc1cc(Cl)ccc12 | 0.058 µM
